PubChem BioAssay AID1053168 (Broad Institute, 2014)
Activity calls are given as the source filed them. How the calls were made is not given here.

What was measured:
[1] = test system: Vaccinia-infected cells, mCherry/Venus stage reporter fluorescence; assay: Vaccinia infected cells, stage specific inhibitors, mcherry venus reporter fluorescence, confirmatory dose response (AID 1053168); settings: measured here: mCherry reporter AC50
[2] = as above; settings: Vaccinia-infected cells, mCherry/Venus stage reporter fluorescence; at 21 µM (top of the series)

For `CCCNC(=O)c1cc2c(c(-c3cccc(-c4cccc(F)c4)c3)n1)[C@H](CCO)N([S@@](=O)C(C)(C)C)C2`, the AC50 [1] was over 42 µM and the activity change, negative = inhibition [2] was -8.81% (inactive).
